In patent US11390613B2, “Azole analogues and methods of use thereof” (UNIVERSITY OF CONNECTICUT, priority 2017, dated 2022):

tested on: Gli1 mRNA levels in the murine BCC cell line ASZ-001 (Hh pathway); assay: Hh pathway inhibition: endogenous Gli1 mRNA (qRT-PCR) in ASZ-001 cells; format: cell-based; conditions: Mus musculus, ASZ001, 48 h
Experimental: Initial Hh inhibition studies.
General Information for Cell Culture Studies Protocols for general cell culture, qPCR, and Hh inhibition ASZ cells are as previously described.
General Information for Cell Culture Studies. Protocols for general cell culture, qPCR, and Hh inhibition ASZ cells are as previously described.
Gene Expression Assay Protocol (ASZ-001): Cells are seeded (10,000 cells per well; 100 μL total volume per well) in a 96-well tissue culture plate. After 24 h of incubation (37° C., 5% CO2), growth media was removed and replaced with low FBS media. Cells were incubated for an additional 24 h. After this time, DMSO (vehicle control) and liposomes (Aqueous Solution) were added to the wells. […]
Rt-PCR Protocol: Following treatment and incubation periods, both RNA extraction and cDNA synthesis were performed using a TaqMan Cells-to-CT (fast) kit. cDNA synthesis utilized a BioRad MyCycler and was programmed according to the manufacturer's instructions. Quantitative RT-PCR was performed on an ABI 7500 system and made use of the following TaqMan Gene Expression Probes: mouse ActB (Mm00607939_s1) and mouse Gli1 (Mm00494654_m1). Relative gene expression levels were computed via ΔΔCT method using GraphPad Prism. Corresponding IC50 values were calculated as mean±SEM for at least three separate experiments performed in triplicate.

IC50 [nM]	Compound
2200 ± 300	C[C@]1(c2ccc(Cl)cc2Cl)OC[C@@H](COc2ccc(N3CCN(c4ccc(NC(=O)c5ccccc5O)cc4)CC3)cc2)O1 [Compound 29, N-(4-(4-(4-(((2S,4R)-2-(2,4-dichlorophenyl)-2-methyl-1,3-dioxolan-4-yl)methoxy)phenyl)piperazin-1-yl)phenyl)-2-hydroxybenzamide]
5700	COc1cccc(C(=O)Nc2ccc(N3CCN(c4ccc(OC[C@@H]5CO[C@](C)(c6ccc(Cl)cc6Cl)O5)cc4)CC3)cc2)c1 [Compound 33, N-(4-(4-(4-(((2S,4R)-2-(2,4-dichlorophenyl)-2-methyl-1,3-dioxolan-4-yl)methoxy)phenyl)piperazin-1-yl)phenyl)-3-methoxybenzamide]
210	C[C@]1(c2ccc(Cl)cc2Cl)OC[C@@H](COc2ccc(N3CCN(c4ccc(-n5cn[nH]c5=O)cc4)CC3)cc2)O1 [Compound 42, 4-(4-(4-(4-(((2S,4R)-2-(2,4-dichlorophenyl)-2-methyl-1,3-dioxolan-4-yl)methoxy)phenyl)piperazin-1-yl)phenyl)-1H-1,2,4-triazol-5(4H)-one]

Compound	IC50 [nM]
C[C@]1(c2ccc(F)cc2F)C[C@H](COc2ccc(N3CCN(c4ccc(NC(=O)Oc5ccccc5)cc4)CC3)cc2)CO1 [Compound P21, phenyl (4-(4-(4-(((3R,5R)-5-(2,4-difluorophenyl)-5-methyltetrahydrofuran-3-yl)methoxy)phenyl)piperazin-1-yl)phenyl)carbamate]	> 10000

same assay, conditions: Mus musculus, ASZ001; Table P2; ASZ cells, Gli1 mRNA, 48 h incubation; read-out: IC50

IC50 [nM]	Compound
12 ± 5	CC1(c2ccc(Cl)cc2Cl)OCC(COc2ccc(N3CCN(c4ccc(-n5cnn(CCC(=O)O)c5=O)cc4)CC3)cc2)O1 (stereo not shown) [Compound I17, 3-(4-(4-(4-(4-((2-(2,4-dichlorophenyl)-2-methyl-1,3-dioxolan-4-yl)methoxy)phenyl)piperazin-1-yl)phenyl)-5-oxo-4,5-dihydro-1H-1,2,4-triazol-1-yl)propanoic acid]
32 ± 10	C[C@]1(c2ccc(F)cc2F)C[C@H](COc2ccc(N3CCN(c4ccc(-n5cnn(CCC(=O)O)c5=O)cc4)CC3)cc2)CO1 [Compound P13, 3-(4-(4-(4-(4-(((3R,5R)-5-(2,4-difluorophenyl)-5-methyltetrahydrofuran-3-yl)methoxy)phenyl)piperazin-1-yl)phenyl)-5-oxo-4,5-dihydro-1H-1,2,4-triazol-1-yl)propanoic acid]
150 ± 20	C[C@]1(c2ccc(F)cc2F)C[C@H](COc2ccc(N3CCN(c4ccc(-n5cnn(CC(=O)O)c5=O)cc4)CC3)cc2)CO1 [Compound P14, 2-(4-(4-(4-(4-(((3R,5R)-5-(2,4-difluorophenyl)-5-methyltetrahydrofuran-3-yl)methoxy)phenyl)piperazin-1-yl)phenyl)-5-oxo-4,5-dihydro-1H-1,2,4-triazol-1-yl)acetic acid]
20 ± 10	C[C@]1(c2ccc(F)cc2F)C[C@H](COc2ccc(N3CCN(c4ccc(-n5cnn(CCCO)c5=O)cc4)CC3)cc2)CO1 [Compound P15, 4-(4-(4-(4-(((3R,5R)-5-(2,4-difluorophenyl)-5-methyltetrahydrofuran-3-yl)methoxy)phenyl)piperazin-1-yl)phenyl)-2-(3-hydroxypropyl)-2,4-dihydro-3H-1,2,4-triazol-3-one]
740 ± 150	C[C@]1(c2ccc(F)cc2F)C[C@H](COc2ccc(N3CCN(c4ccc([N+](=O)[O-])cc4)CC3)cc2)CO1 [Compound P19, 1-(4-(((3R,5R)-5-(2,4-difluorophenyl)-5-methyltetrahydrofuran-3-yl)methoxy)phenyl)-4-(4-nitrophenyl)piperazine]
330 ± 120	C[C@]1(c2ccc(F)cc2F)C[C@H](COc2ccc(N3CCN(c4ccc(N)cc4)CC3)cc2)CO1 [Compound P20, 4-(4-(4-(((3R,5R)-5-(2,4-difluorophenyl)-5-methyltetrahydrofuran-3-yl)methoxy)phenyl)piperazin-1-yl)aniline]
220 ± 80	C[C@]1(c2ccc(F)cc2F)C[C@H](COc2ccc(N3CCN(c4ccc(NC(=O)NN)cc4)CC3)cc2)CO1 [Compound P22, N-(4-(4-(4-(((3R,5R)-5-(2,4-difluorophenyl)-5-methyltetrahydrofuran-3-yl)methoxy)phenyl)piperazin-1-yl)phenyl)hydrazinecarboxamide]
190 ± 100	C[C@]1(c2ccc(F)cc2F)C[C@H](COc2ccc(N3CCN(c4ccc(-n5cn[nH]c5=O)cc4)CC3)cc2)CO1 [Compound P23, 4-(4-(4-(4-(((3R,5R)-5-(2,4-difluorophenyl)-5-methyltetrahydrofuran-3-yl)methoxy)phenyl)piperazin-1-yl)phenyl)-2,4-dihydro-3H-1,2,4-triazol-3-one]
24 ± 9	CC(=O)c1cccc(C(=O)Nc2ccc(N3CCN(c4ccc(OC[C@@H]5CO[C@@](C)(c6ccc(F)cc6F)C5)cc4)CC3)cc2)c1 [Compound P24, 3-acetyl-N-(4-(4-(4-(((3R,5R)-5-(2,4-difluorophenyl)-5-methyltetrahydrofuran-3-yl)methoxy)phenyl)piperazin-1-yl)phenyl)benzamide]

same assay, conditions: Table 6; ASZ cells, Gli1 mRNA, 48 h incubation; read-out: IC50

IC50 [nM]	Compound
> 10000	C[C@@]1(c2ccc(Cl)cc2Cl)OC[C@@H](COc2ccc(N3CCN(c4ccc(NC(=O)c5ccccc5O)cc4)CC3)cc2)O1 [Compound 26, N-(4-(4-(4-(((2R,4R)-2-(2,4-dichlorophenyl)-2-methyl-1,3-dioxolan-4-yl)methoxy)phenyl)piperazin-1-yl)phenyl)-2-hydroxybenzamide]
> 10000	C[C@@]1(c2ccc(Cl)cc2Cl)OC[C@@H](COc2ccc(N3CCN(c4ccc(NC(=O)c5ccc(O)cc5)cc4)CC3)cc2)O1 [Compound 28, N-(4-(4-(4-(((2R,4R)-2-(2,4-dichlorophenyl)-2-methyl-1,3-dioxolan-4-yl)methoxy)phenyl)piperazin-1-yl)phenyl)-4-hydroxybenzamide]
3000 ± 100	C[C@]1(c2ccc(Cl)cc2Cl)OC[C@@H](COc2ccc(N3CCN(c4ccc(NC(=O)c5ccc(O)cc5)cc4)CC3)cc2)O1 [Compound 31, N-(4-(4-(4-(((2S,4R)-2-(2,4-dichlorophenyl)-2-methyl-1,3-dioxolan-4-yl)methoxy)phenyl)piperazin-1-yl)phenyl)-4-hydroxybenzamide]

same assay, conditions: Table 7; ASZ cells, Gli1 mRNA, 48 h incubation

IC50 (μM)	Compound
inactive	C[C@]1(c2ccc(Cl)cc2Cl)OC[C@@H](COc2ccc(N3CCN(c4ccc(NC(=O)c5ccoc5)cc4)CC3)cc2)O1 [Compound 35, N-(4-(4-(4-(((2S,4R)-2-(2,4-dichlorophenyl)-2-methyl-1,3-dioxolan-4-yl)methoxy)phenyl)piperazin-1-yl)phenyl)furan-3-carboxamide]
inactive	C[C@]1(c2ccc(Cl)cc2Cl)OC[C@@H](COc2ccc(N3CCN(c4ccc(NC(=O)c5ccsc5)cc4)CC3)cc2)O1 [Compound 36, N-(4-(4-(4-(((2S,4R)-2-(2,4-dichlorophenyl)-2-methyl-1,3-dioxolan-4-yl)methoxy)phenyl)piperazin-1-yl)phenyl)thiophene-3-carboxamide]

same assay, conditions: Table 7; ASZ cells, Gli1 mRNA, 48 h incubation; read-out: IC50

IC50 [nM]	Compound
> 10000	C[C@]1(c2ccc(Cl)cc2Cl)OC[C@@H](COc2ccc(N3CCN(c4ccc(NC(=O)c5cccc(Cl)c5)cc4)CC3)cc2)O1 [Compound 32, 3-chloro-N-(4-(4-(4-(((2S,4R)-2-(2,4-dichlorophenyl)-2-methyl-1,3-dioxolan-4-yl)methoxy)phenyl)piperazin-1-yl)phenyl)benzamide]
> 10000	C[C@]1(c2ccc(Cl)cc2Cl)OC[C@@H](COc2ccc(N3CCN(c4ccc(NC(=O)c5ccoc5)cc4)CC3)cc2)O1 [Compound 35, N-(4-(4-(4-(((2S,4R)-2-(2,4-dichlorophenyl)-2-methyl-1,3-dioxolan-4-yl)methoxy)phenyl)piperazin-1-yl)phenyl)furan-3-carboxamide]
> 10000	C[C@]1(c2ccc(Cl)cc2Cl)OC[C@@H](COc2ccc(N3CCN(c4ccc(NC(=O)c5ccsc5)cc4)CC3)cc2)O1 [Compound 36, N-(4-(4-(4-(((2S,4R)-2-(2,4-dichlorophenyl)-2-methyl-1,3-dioxolan-4-yl)methoxy)phenyl)piperazin-1-yl)phenyl)thiophene-3-carboxamide]

same assay, conditions: Table 8; ASZ cells, Gli1 mRNA, 48 h incubation; read-out: IC50

IC50 [nM]	Compound
140	C[C@@]1(c2ccc(Cl)cc2Cl)OC[C@@H](COc2ccc(N3CCN(c4ccc(-n5cn[nH]c5=O)cc4)CC3)cc2)O1 [Compound 41]
